Assay results: patent US10968462B2, “Plants having increased tolerance to herbicides” (BASF AGRO B.V., priority 2013, dated 2021)
Values joined by “and” are separate entries in the source; they are usually repeats but may differ in a detail not shown here. Equal values may be shown once.

Tests used:
[1] = system: transgenic soybean cv Jake; experiment: Soybean greenhouse spray test, clones from T0 individuals, injury 0-9 point scale 1 week after treatment (Table 7A); assay type: in vivo, Glycine max
Method: (§1) Soybean cv Jake was transformed as previously described by Siminszky et al., Phytochem Rev. 5:445-458 (2006). After regeneration, transformants were transplanted to soil in small pots, placed in growth chambers (16 hr day/8 hr night; 25° C. day/23° C. night; 65% relative humidity; 130-150 microE m-2 s-1) and subsequently tested for the presence of the T-DNA via Taqman analysis. After a few weeks, healthy, transgenic positive, single copy events were transplanted to larger pots and allowed to grow in the growth chamber. An optimal shoot for cutting was about 3-4 inches tall, with at least two nodes present. Each cutting was taken from the original transformant (mother plant) and dipped into rooting hormone powder (indole-3-butyric acid, IBA). The cutting was then placed in oasis wedges inside a bio-dome. The mother plant was taken to maturity in the greenhouse and harvested for seed. Wild type cuttings were also taken simultaneously to serve as negative controls. The cuttings were kept in the bio-dome for 5-7 days and then transplanted to 3 inch pots and then acclimated in the growth chamber for two more days. […] Other herbicides, such as AHAS (ALS—Acetolactate Synthase) inhibiting herbicides were also tested in a similar fashion for confirming cross resistance to other modes of action: Tritosulfuron, Florasulam, Metsulfuron, Rimsulfuron. Herbicide injury evaluations were taken at 2, 7, 14 and 21 days after treatment.
(§2) • 0 No Injury • 1 Minimal injury, only a few patches of leaf injury or chlorosis. • 2 Minimal injury with slightly stronger chlorosis. Overall growth points remain undamaged. • 3 Slightly stronger injury on secondary leaf tissue, but primary leaf and growth points are still undamaged. • 4 Overall plant morphology is slightly different, some chlorosis and necrosis in secondary growth points and leaf tissue. Stems are intact. Regrowth is highly probable within 1 week. • 5 Overall plant morphology is clearly different, some chlorosis and necrosis on a few leaves and growth points, but primary growth point is intact. Stem tissue is still green. Regrowth is highly probably within 1 week. • 6 Strong injury can be seen on the new leaflet growth. Plant has a high probability to survive only through regrowth at different growth points. Most of the leaves are chlorotic/necrotic but stem tissue is still green. May have regrowth but with noticeable injured appearance. • 7 Most of the active growth points are necrotic. There may be a single growth point that could survive and may be partially chlorotic or green and partially necrotic. Two leaves may still be chlorotic with some green; the rest of the plant including stem is necrotic. • 8 Plant will likely die, and all growth points are necrotic. One leaf may still be chlorotic with some green. The remainder of the plant is necrotic. • 9 Plant is dead. • * Not tested

[2] = system: transgenic T2 soybean plants; experiment: Soybean greenhouse spray test, T2 plants at V2-V3 stage, injury 0-9 point scale 1 or 2 weeks after treatment (Tables 7C-7E); assay type: in vivo, Glycine max; settings: 2 week after treatment
Method: as §1, §2

CC(C)N(C)S(=O)(=O)NC(=O)c1cc(-n2c(=O)cc(C(F)(F)F)n(C)c2=O)c(F)cc1Cl [Saflufenacil, saflufenacil]
injury (0-9 point scale) 1 week after treatment ([1]; Saflufenacil 12.5 g ai/ha, GOI AmtuPPX2L_F420L stacked with Bradi_1g07930.1_Zm): 6 and 5 and 0 (2×) and 1 (2×)
injury (0-9 point scale) 1 week after treatment ([1]; Saflufenacil 12.5 g ai/ha, GOI Bradi_1g07930.1_Zm): 4 (2×) and 1 and 6 (3×) and 0
injury (0-9 point scale) 1 week after treatment ([1]; Saflufenacil 25 g ai/ha, GOI AmtuPPX2L_F420L stacked with Bradi_1g07930.1_Zm): 6 and 0 (2×) and 2 (2×)
injury (0-9 point scale) 1 week after treatment ([1]; Saflufenacil 25 g ai/ha, GOI Bradi_1g07930.1_Zm): 6 (4×) and 5 (2×) and 1
injury (0-9 point scale) 1 week after treatment ([1]; Saflufenacil 50 g ai/ha, GOI AmtuPPX2L_F420L stacked with Bradi_1g07930.1_Zm): 5 (2×) and 6 and 1 (3×) and 2 (3×)
injury (0-9 point scale) 1 week after treatment ([1]; Saflufenacil 50 g ai/ha, GOI AmtuPPX2L_R128A_F420L stacked with Bradi_1g07930.1_Zm): 1
injury (0-9 point scale) 1 week after treatment ([1]; Saflufenacil 50 g ai/ha, GOI AmtuPPX2L_R128A_F420V stacked with Bradi_1g07930.1_Zm): 1 (4×) and 2 (2×) and 6 and 4 and 3
injury (0-9 point scale) 1 week after treatment ([1]; Saflufenacil 50 g ai/ha, GOI Bradi_1g07930.1_Zm): 6 (2×) and 5
injury (0-9 point scale) 1 week after treatment ([1]; Saflufenacil 100 g ai/ha, GOI AmtuPPX2L_F420L stacked with Bradi_1g07930.1_Zm): 3 and 6 and 2
injury (0-9 point scale) 1 week after treatment ([1]; Saflufenacil 100 g ai/ha, GOI AmtuPPX2L_R128A_F420L stacked with Bradi_1g07930.1_Zm): 0 and 3 and 1 (3×) and 2 (4×) and 6 and 4
injury (0-9 point scale) 1 week after treatment ([1]; Saflufenacil 100 g ai/ha, GOI AmtuPPX2L_R128A_F420V stacked with Bradi_1g07930.1_Zm): 3 (5×) and 0 and 1 and 7 and 2 and 5 and 4
injury (0-9 point scale) 1 week after treatment ([1]; Saflufenacil 100 g ai/ha, GOI Bradi_1g07930.1_Zm): 8 and 6
injury (0-9 point scale) 1 week after treatment ([1]; Saflufenacil 200 g ai/ha, GOI AmtuPPX2L_F420L stacked with Bradi_1g07930.1_Zm): 2 (2×) and 6
injury (0-9 point scale) 1 week after treatment ([1]; Saflufenacil 200 g ai/ha, GOI AmtuPPX2L_R128A_F420L stacked with Bradi_1g07930.1_Zm): 1 and 5 (2×) and 3 (2×) and 2 (4×) and 0 and 4
injury (0-9 point scale) 1 week after treatment ([1]; Saflufenacil 200 g ai/ha, GOI AmtuPPX2L_R128A_F420V stacked with Bradi_1g07930.1_Zm): 2 (4×) and 5 (2×) and 3 (2×) and 7 and 6 and 8

COc1nc(C)nc(=NC(=O)NS(=O)(=O)c2ccccc2C(=O)O)[nH]1 [Metsulfuron]
injury on a 0-9 point scale ([2]; Bradi_1g07930.1 (Event 1), 1.05 g ai/ha): 1.0
injury on a 0-9 point scale ([2]; Bradi_1g07930.1 (Event 1), 2.1 g ai/ha): 0.7
injury on a 0-9 point scale ([2]; Bradi_1g07930.1 (Event 1), 4.2 g ai/ha): 2.3
injury on a 0-9 point scale ([2]; Bradi_1g07930.1 (Event 1), 8.4 g ai/ha): 3.3
injury on a 0-9 point scale ([2]; R128A_F420V (Event 1), 1.05 g ai/ha): 8.0
injury on a 0-9 point scale ([2]; R128A_F420V (Event 1), 2.1 g ai/ha): 8.0
injury on a 0-9 point scale ([2]; R128A_F420V (Event 1), 4.2 g ai/ha): 8.0
injury on a 0-9 point scale ([2]; R128A_F420V (Event 1), 8.4 g ai/ha): 8.7
injury on a 0-9 point scale ([2]; R128A_F420V (Event 2), 1.05 g ai/ha): 8.0
injury on a 0-9 point scale ([2]; R128A_F420V (Event 2), 2.1 g ai/ha): 9.0
injury on a 0-9 point scale ([2]; R128A_F420V (Event 2), 4.2 g ai/ha): 8.7
injury on a 0-9 point scale ([2]; R128A_F420V (Event 2), 8.4 g ai/ha): 9.0
injury on a 0-9 point scale ([2]; R128A_F420V + Bradi_1g07930.1 (Event 1), 1.05 g ai/ha): 2.7
injury on a 0-9 point scale ([2]; R128A_F420V + Bradi_1g07930.1 (Event 1), 2.1 g ai/ha): 3.0
injury on a 0-9 point scale ([2]; R128A_F420V + Bradi_1g07930.1 (Event 1), 4.2 g ai/ha): 4.0
injury on a 0-9 point scale ([2]; R128A_F420V + Bradi_1g07930.1 (Event 1), 8.4 g ai/ha): 4.3
injury on a 0-9 point scale ([2]; R128A_F420V + Bradi_1g07930.1 (Event 2), 1.05 g ai/ha): 3.0
injury on a 0-9 point scale ([2]; R128A_F420V + Bradi_1g07930.1 (Event 2), 2.1 g ai/ha): 3.7
injury on a 0-9 point scale ([2]; R128A_F420V + Bradi_1g07930.1 (Event 2), 4.2 g ai/ha): 3.0
injury on a 0-9 point scale ([2]; R128A_F420V + Bradi_1g07930.1 (Event 2), 8.4 g ai/ha): 3.0
injury on a 0-9 point scale ([2]; wild type, 1.05 g ai/ha): 8.5
injury on a 0-9 point scale ([2]; wild type, 2.1 g ai/ha): 8.3
injury on a 0-9 point scale ([2]; wild type, 4.2 g ai/ha): 8.8
injury on a 0-9 point scale ([2]; wild type, 8.4 g ai/ha): 8.5

CCS(=O)(=O)c1cccnc1S(=O)(=O)NC(=O)Nc1nc(OC)cc(OC)n1 [Rimsulfuron]
injury on a 0-9 point scale ([2]; Bradi_1g07930.1 (Event 1), 10 g ai/ha): 6.0
injury on a 0-9 point scale ([2]; Bradi_1g07930.1 (Event 1), Rimsulfuron 1.25 g ai/ha): 6.0
injury on a 0-9 point scale ([2]; Bradi_1g07930.1 (Event 1), Rimsulfuron 2.5 g ai/ha): 6.0
injury on a 0-9 point scale ([2]; Bradi_1g07930.1 (Event 1), Rimsulfuron 5 g ai/ha): 6.0
injury on a 0-9 point scale ([2]; R128A_F420V (Event 1), 10 g ai/ha): 7.5
injury on a 0-9 point scale ([2]; R128A_F420V (Event 1), Rimsulfuron 1.25 g ai/ha): 6.5
injury on a 0-9 point scale ([2]; R128A_F420V (Event 1), Rimsulfuron 5 g ai/ha): 7.0
injury on a 0-9 point scale ([2]; R128A_F420V (Event 2), 10 g ai/ha): 7.0
injury on a 0-9 point scale ([2]; R128A_F420V (Event 2), Rimsulfuron 1.25 g ai/ha): 6.0
injury on a 0-9 point scale ([2]; R128A_F420V (Event 2), Rimsulfuron 2.5 g ai/ha): 7.0
injury on a 0-9 point scale ([2]; R128A_F420V (Event 2), Rimsulfuron 5 g ai/ha): 7.0
injury on a 0-9 point scale ([2]; R128A_F420V + Bradi_1g07930.1 (Event 1), 10 g ai/ha): 4.3
injury on a 0-9 point scale ([2]; R128A_F420V + Bradi_1g07930.1 (Event 1), Rimsulfuron 1.25 g ai/ha): 4.0
injury on a 0-9 point scale ([2]; R128A_F420V + Bradi_1g07930.1 (Event 1), Rimsulfuron 2.5 g ai/ha): 3.5
injury on a 0-9 point scale ([2]; R128A_F420V + Bradi_1g07930.1 (Event 1), Rimsulfuron 5 g ai/ha): 3.3
injury on a 0-9 point scale ([2]; R128A_F420V + Bradi_1g07930.1 (Event 2), 10 g ai/ha): 5.0
injury on a 0-9 point scale ([2]; R128A_F420V + Bradi_1g07930.1 (Event 2), Rimsulfuron 1.25 g ai/ha): 3.0
injury on a 0-9 point scale ([2]; R128A_F420V + Bradi_1g07930.1 (Event 2), Rimsulfuron 2.5 g ai/ha): 4.0
injury on a 0-9 point scale ([2]; R128A_F420V + Bradi_1g07930.1 (Event 2), Rimsulfuron 5 g ai/ha): 4.5
injury on a 0-9 point scale ([2]; wild type, 10 g ai/ha): 8.5
injury on a 0-9 point scale ([2]; wild type, Rimsulfuron 1.25 g ai/ha): 8.0
injury on a 0-9 point scale ([2]; wild type, Rimsulfuron 2.5 g ai/ha): 8.5
injury on a 0-9 point scale ([2]; wild type, Rimsulfuron 5 g ai/ha): 8.3
